# Results: patent publication US9066865B2, “Pharmaceutical compositions for the treatment of inner ear disorders” (AURIS MEDICAL AG, priority 2005, dated 2015)
# What was measured:
# [1] = in vitro release of Ketamine from hyaluronic acid gel into PBS (without membrane or Franz cell with filter/dialysis membrane); type: physicochemical
# Description: A hyaluronic acid solution (Hylumed, Genzyme Corp.) was prepared at concentrations of 5 and 7.5% in phosphate buffered saline (PBS). At 8%, handling of the gel had shown to be difficult due to the high viscosity. S-(+)-Ketamine hydrochloride (Sigma-Aldrich) was dissolved at a concentration of 2% (weight/weight) equivalent to 73 mM. To evaluate the importance of the drug load factor, concentrations of 0.5% and 2.5% were also tested. Release of the pharmacologically active agent was measured in PBS, a common receiver fluid for controlled release studies, either without any membrane or by using a filter membrane or a dialysis membrane (Spectropore) in a Franz cell (PermeGear). The membranes were employed to mimic the rate limiting membrane of the round window. The temperature of the fluid was maintained constant at body temperature. The bottom chamber of the Franz cell was filled with 5 ml of PBS as the receiver fluid. The receiver fluid contained a stir bar for continuous agitation. The upper chamber was filled with approximately 50 mg of gel and the cell assembled. At various time points, aliquots (typically 1 ml) were withdrawn and analyzed by UV spectrophotometry (Agilent 8453). The absorbance at 215 nm was measured and the concentration calculated using an extinction coefficient of 30 ml/mg cm. As the volume of the aliquot was known, the total amount released could be determined. Each time an aliquot was withdrawn, the same volume of PBS was placed back into the Franz cell chamber.
# [2] = system: PCP binding site of the NMDA receptor; conditions: relative to (R)-ketamine; cited from earlier work
# [3] = pharmacokinetic study: Ketamine in perilymph after 2.8% hyaluronic acid gel on the round window membrane; type: in vivo; conditions: 1 mM, guinea pig
# Description: In a second step, a pharmacokinetic study with pigmented guinea pigs was carried out in order to evaluate in vivo the diffusion of Ketamine from a hyaluronic acid gel formulation across the round window membrane into the inner ear. A total of 30 animals were tested for concentrations of the pharmaceutical compound in the perilymph at 1 hour, 3 hours, 8 hours, 24 hours and 72 hours following gel administration; 6 animals per time point were tested.
# Animals were anaesthetized with a single-dose i.p. injection of 0.3 ml/kg of pentobarbital at 6% (Ceva sante animale), and the right ear bulla was opened using a posterior auricular surgical procedure (dorsal approach). 2 microliters of the hyaluronic gel formulation (2.8% Hylumed Sterile in artificial perilymph, molecular weight 2.44 million; Genzyme Corp.) with S-(+)-Ketamine (Sigma-Aldrich) at a concentration of 1 milliM were then deposited onto the round window membrane of the inner ear. At each of the aforementioned time points, one group of animals was decapitated under deep anaesthesia (pentobarbital 50 mg/kg). […] The samples were then analyzed by liquid chromatography mass spectrometry with a limit of quantification of 0.2 ng/ml (HPLC instrument: Perkin Elmer series 200; mass spectrometer detector: MSD Sciex API 4000 Applied Biosystems; column: Zorbax SB CN 50×2.1 mm 5 μm-Agilent technologies).
structure (smiles),measurement,setting,value
"CN[C@@]1(c2ccccc2Cl)CCCCC1=O (stereo in doubt) [Ketamine, 2-(2-chlorophenyl)-2-(methylamino)-cyclohexanone]",release rate at 7.5% hyaluronic acid compared with 5%,"[1]; 7.5% hyaluronic acid gel, rate limiting membrane",less quickly than at 5%
same,duration of release of Ketamine into PBS,[1]; Franz cell with dialysis membrane,about three days
same,duration of release of Ketamine into PBS,[1]; Franz cell with filter membrane,approximately 60 hours
same,release speed compared with Ketamine hydrochloride solution,"[1]; gel with 0.5% Ketamine by weight, Franz cell with filter membrane",nearly as fast as a simple Ketamine hydrochloride solution
same,amount released in the first hour (initial burst),"[1]; gel with 2.5% Ketamine loading factor, Franz cell with filter membrane",about 20%
same,share of the total cumulative concentration in PBS achieved,"[1]; hyaluronic acid gel, no rate limiting membrane, after one hour",~50%
same,duration of release of Ketamine from hyaluronic acid gel,[1]; no membrane,over just a few hours
same,higher affinity to the PCP binding site of the NMDA receptor than (R)-ketamine,[2],3-4 fold
same,time to maximum concentration of Ketamine in perilymph,[3]; 2 microliters on round window membrane,within one hour
same,last quantifiable levels in perilymph,[3]; LOQ 0.2 ng/ml,after three days
